The results in this text go back to patent publication US11780841B2, “3,6-methano-1H-pyrrolo[3,2-b]pyridine and 3,6-methano-1H-pyrrolo[3,2-c]pyridine compounds and medicaments using same” (priority 2018, dated 2023).

SMILES strings stand for the structures. Where two headings read alike, the source gives them in different places.

The test system of the test is recombinant rabies virus 1088 strain expressing Gaussia Luciferase (GLuc) (1088/GLuc). Type of test: cell-based.

For `CC(C)C[C@@H]1[C@@H]2[C@@H]3CN[C@@]1(C(=O)NCc1cccc4ccccc14)C[C@@H]3CN2CC(N)=O` (relative stereo) [IF-81], the IC50 (read-out: Anti-rabies activity) was in the range of 10 to 30 µM.
`NC(=O)CN1C[C@H]2C[C@]3(C(=O)NCc4cccc5ccccc45)NC[C@H]2[C@H]1[C@H]3Cc1ccccc1` (relative stereo) [IF-82]: where the note is “read-out: Anti-rabies activity”, the IC50 lay in the range of 10 to 30 µM.
`CC(C)CC[C@@H]1[C@@H]2[C@@H]3CN[C@@]1(C(=O)NCc1cccc4ccccc14)C[C@@H]3CN2CC(N)=O` (relative stereo) [IF-84]: the IC50 (read-out: Anti-rabies activity) is 10 to 30 µM.
Turning to `NC(=O)CN1C[C@H]2C[C@]3(C(=O)NCc4cccc5ccccc45)NC[C@H]2[C@H]1[C@H]3CCc1ccccc1` (relative stereo) [IF-85], the IC50 (read-out: Anti-rabies activity) lay in the range of 10 to 30 µM.
As to `NC(=O)CN1C[C@H]2C[C@]3(C(=O)NCCc4ccccc4)NC[C@H]2[C@H]1[C@H]3Cc1cccc2ccccc12` (relative stereo) [IF-90], for the setting “read-out: Anti-rabies activity”, the IC50 was 10 to 30 µM.
For `NC(=O)CN1C[C@H]2C[C@]3(C(=O)NCc4cccc5ccccc45)NC[C@H]2[C@H]1[C@H]3Cc1cccc2ccccc12` (relative stereo) [IF-91], under “read-out: Anti-rabies activity”, the IC50 is < 5 µM.
On the same count and under the same terms, the same measure for `CC(C)CC[C@@H]1[C@@H]2[C@@H]3CN[C@@]1(C(=O)NCc1ccc(F)cc1)C[C@@H]3CN2CC(N)=O` (relative stereo) [IF-95]: 10 to 30 µM.
Regarding `O=C(NCc1ccccc1)[C@@]12C[C@@H]3CN(Cc4cccc5ccccc45)[C@@H]([C@@H]3CN1)[C@H]2Cc1ccc(O)cc1` (relative stereo) [IF-505], the IC50 (read-out: Anti-rabies activity) was < 5 µM.
Same read-out and setting: the same measure for `O=C(NCc1ccc(F)cc1)[C@@]12C[C@@H]3CN(CCO)[C@@H]([C@@H]3CN1)[C@H]2Cc1ccccc1` (relative stereo) [IF-508]: 10 to 30 µM; for `CCCCCCNC(=O)[C@@]12C[C@@H]3CN(CC4CCCCC4)[C@@H]([C@@H]3CN1)[C@H]2Cc1ccc(O)cc1` (relative stereo) [IF-514]: < 5 µM; for `O=C(NCc1ccc(F)cc1)[C@@]12C[C@@H]3CN(CCO)[C@@H]([C@@H]3CN1)[C@H]2CCc1ccccc1` (relative stereo) [IF-516]: < 5 µM.
As for `CC(C)CN1C[C@H]2C[C@]3(C(=O)NCc4ccc(F)cc4)NC[C@H]2[C@H]1[C@H]3CCc1ccccc1` (relative stereo) [IF-525], the IC50 (read-out: Anti-rabies activity) lay in the range of 10 to 30 µM.
Take `CC(C)C[C@@H]1[C@@H]2[C@@H]3CN[C@@]1(C(=O)NCc1cccc4ccccc14)C[C@@H]3CN2CCO` (relative stereo) [IF-542]: the IC50 (read-out: Anti-rabies activity) was < 5 µM.
Turning to `CC(C)CCN1C[C@H]2C[C@]3(C(=O)NCCc4ccccc4)NC[C@H]2[C@H]1[C@H]3Cc1ccc(O)cc1` (relative stereo) [IF-545], for the setting “read-out: Anti-rabies activity”, the IC50 fell in the range of 10 to 30 µM.
As for `CCCCCCNC(=O)[C@@]12C[C@@H]3CN(CCC(C)C)[C@@H]([C@@H]3CN1)[C@H]2CC(C)C` (relative stereo) [IF-546], where the note is “read-out: Anti-rabies activity”, the IC50 fell in the range of 10 to 30 µM.
On to `CC(C)CCN1C[C@H]2C[C@]3(C(=O)NCc4ccc(F)cc4)NC[C@H]2[C@H]1[C@H]3Cc1ccccc1` (relative stereo) [IF-547], for which the IC50 (read-out: Anti-rabies activity) is < 5 µM.
Same read-out and setting: the result for `CC(C)CCN1C[C@H]2C[C@]3(C(=O)NCc4ccc(F)cc4)NC[C@H]2[C@H]1[C@H]3CC(C)C` (relative stereo) [IF-548] reads 10 to 30 µM.
Consider `CCCCCCNC(=O)[C@@]12C[C@@H]3CN(Cc4ccccc4)[C@@H]([C@@H]3CN1)[C@H]2CC(C)C` (relative stereo) [IF-560], for which, where the note is “read-out: Anti-rabies activity”, the IC50 is < 5 µM.
Consider `O=C(NCc1ccc(F)cc1)[C@@]12C[C@@H]3CN(Cc4ccccc4)[C@@H]([C@@H]3CN1)[C@H]2Cc1ccccc1` (relative stereo) [IF-561], for which the IC50 (read-out: Anti-rabies activity) is < 5 µM.
The same measure, in the same setting: the same measure for `O=C(NCc1ccc(O)cc1)[C@@]12C[C@@H]3CN(Cc4ccccc4)[C@@H]([C@@H]3CN1)[C@H]2CCc1ccccc1` (relative stereo) [IF-565]: < 5 µM.
`CC(C)CN1C[C@H]2C[C@]3(C(=O)NCCc4ccccc4)NC[C@H]2[C@H]1[C@H]3Cc1ccc(O)cc1` (relative stereo) [IF-567]: the IC50 (read-out: Anti-rabies activity) is 10 to 30 µM.
Same read-out and setting: the result for `CC(C)CN1C[C@H]2C[C@]3(C(=O)NCc4cccc5ccccc45)NC[C@H]2[C@H]1[C@H]3Cc1ccc(O)cc1` (relative stereo) [IF-568] reads < 5 µM.
With `CCCCCCNC(=O)[C@@]12C[C@@H]3CN(CC(C)C)[C@@H]([C@@H]3CN1)[C@H]2CC(C)C` (relative stereo) [IF-569], where the note is “read-out: Anti-rabies activity”, the IC50 was 10 to 30 µM.
Consider `CC(C)CN1C[C@H]2C[C@]3(C(=O)NCc4ccc(O)cc4)NC[C@H]2[C@H]1[C@H]3CCc1ccccc1` (relative stereo) [IF-576], for which the IC50 (read-out: Anti-rabies activity) fell in the range of 10 to 30 µM.
Take `CC(C)C[C@@H]1[C@@H]2[C@@H]3CN[C@@]1(C(=O)NCc1cccc4ccccc14)C[C@@H]3CN2Cc1ccc(O)cc1` (relative stereo) [IF-578]: the IC50 (read-out: Anti-rabies activity) is < 5 µM.
Same read-out and setting: the same measure for `CCCCCCNC(=O)[C@@]12C[C@@H]3CN(CCC(C)C)[C@@H]([C@@H]3CN1)[C@H]2Cc1ccc(O)cc1` (relative stereo) [IF-583]: < 5 µM.
As for `CC(C)CCNC(=O)[C@@]12C[C@@H]3CN(Cc4ccc(F)cc4)[C@@H]([C@@H]3CN1)[C@H]2Cc1ccccc1` (relative stereo) [IF-584], where the note is “read-out: Anti-rabies activity”, the IC50 is < 5 µM.
Take `CC(C)CCNC(=O)[C@@]12C[C@@H]3CN(Cc4ccc(F)cc4)[C@@H]([C@@H]3CN1)[C@H]2CC(C)C` (relative stereo) [IF-585]: the IC50 (read-out: Anti-rabies activity) was < 5 µM.
For the molecule `O=C(NCCc1ccccc1)[C@@]12C[C@@H]3CN(Cc4ccc(F)cc4)[C@@H]([C@@H]3CN1)[C@H]2Cc1ccccc1` (relative stereo) [IF-586], the IC50 (read-out: Anti-rabies activity) was 10 to 30 µM.
In the case of `CCCCCCNC(=O)[C@@]12C[C@@H]3CN(CCC(C)C)[C@@H]([C@@H]3CN1)[C@H]2Cc1ccccc1` (relative stereo) [IF-599], for the setting “read-out: Anti-rabies activity”, the IC50 was 10 to 30 µM.
With `CCCCCCNC(=O)[C@@]12C[C@@H]3CN(CCc4ccccc4)[C@@H]([C@@H]3CN1)[C@H]2Cc1ccccc1` (relative stereo) [IF-602], the IC50 (read-out: Anti-rabies activity) fell in the range of 10 to 30 µM.
Regarding `CC(C)CNC(=O)[C@]12N=C[C@@H]3C[C@H]1CN(Cc1ccccc1)[C@H]2[C@@H]3CC(C)C` (relative stereo) [IIB-4], the IC50 is, setting by setting: (read-out: Anti-rabies activity) 5 to 10 µM; (read-out: IC50) 8.9 µM.
With `Cc1ccc(CNC(=O)[C@@]23C[C@@H]4CN(CC(C)C)[C@@H]([C@@H]4C=N2)[C@H]3Cc2ccccc2)cc1` (relative stereo) [IIF-16], the IC50 by setting is: (read-out: Anti-rabies activity) 10 to 30 µM; (read-out: IC50) 28.7 µM.
On to `CC(C)CC[C@@H]1[C@H]2CN[C@@]3(C(=O)NCc4cccc5ccccc45)[C@@H](C2)CN(CC(N)=O)[C@@H]13` [IB-84], for which, for the setting “read-out: Anti-rabies activity”, the IC50 fell in the range of 10 to 30 µM.
Consider `CC(C)C[C@@H]1[C@H]2CN[C@@]3(C(=O)NCCc4ccccc4)[C@@H](C2)CN(CC(N)=O)[C@@H]13` [IB-86], for which the IC50 (read-out: Anti-rabies activity) lay within 10 to 30 µM.
As to `NC(=O)CN1C[C@@H]2C[C@@H]3CN[C@]2(C(=O)NCCc2ccccc2)[C@@H]1[C@@H]3Cc1ccccc1` [IB-87], where the note is “read-out: Anti-rabies activity”, the IC50 was < 5 µM.
Turning to `CC(C)CC[C@@H]1[C@H]2CN[C@@]3(C(=O)NCCc4ccccc4)[C@@H](C2)CN(CC(N)=O)[C@@H]13` [IB-89], the IC50 (read-out: Anti-rabies activity) is < 5 µM.
On the same count and under the same terms, the same measure for `NC(=O)CN1C[C@@H]2C[C@@H]3CN[C@]2(C(=O)NCc2cccc4ccccc24)[C@@H]1[C@@H]3Cc1cccc2ccccc12` [IB-90]: < 5 µM.
As for `NC(=O)CN1C[C@@H]2C[C@@H]3CN[C@]2(C(=O)NCc2ccc(F)cc2)[C@@H]1[C@@H]3Cc1ccccc1` [IB-92], the IC50 (read-out: Anti-rabies activity) fell in the range of 10 to 30 µM.
With `NC(=O)CN1C[C@@H]2C[C@@H]3CN[C@]2(C(=O)NCc2ccc(F)cc2)[C@@H]1[C@@H]3CCc1ccccc1` [IB-95], where the note is “read-out: Anti-rabies activity”, the IC50 was < 5 µM.
For `NC(=O)CN1C[C@@H]2C[C@@H]3CN[C@]2(C(=O)NCc2ccc(F)cc2)[C@@H]1[C@@H]3Cc1cccc2ccccc12` [IB-96], the IC50 (read-out: Anti-rabies activity) fell in the range of 10 to 30 µM.
For the molecule `NC(=O)CN1C[C@@H]2C[C@@H]3CN[C@]2(C(=O)NCCc2ccccc2)[C@@H]1[C@@H]3Cc1cccc2ccccc12` [IB-97], the IC50 (read-out: Anti-rabies activity) was < 5 µM.
`CC(C)CCNC(=O)[C@]12NC[C@H]3C[C@H]1CN(CC(N)=O)[C@H]2[C@@H]3CCc1ccccc1` [IB-102]: the IC50 (read-out: Anti-rabies activity) was < 5 µM.
In the case of `CC(C)CCNC(=O)[C@]12NC[C@H]3C[C@H]1CN(CC(N)=O)[C@H]2[C@@H]3Cc1cccc2ccccc12` [IB-103], the IC50 (read-out: Anti-rabies activity) was in the range of 10 to 30 µM.
Still for that read-out and setting: the same measure for `CCCCCCNC(=O)[C@]12NC[C@H]3C[C@H]1CN(CC(N)=O)[C@H]2[C@@H]3Cc1ccccc1` [IB-105]: 10 to 30 µM.
On to `CCCCCCNC(=O)[C@]12NC[C@H]3C[C@H]1CN(CC(N)=O)[C@H]2[C@@H]3CCC(C)C` [IB-108], for which the IC50 (read-out: Anti-rabies activity) is 10 to 30 µM.
The same measure, in the same setting: the same measure for `CCCCCCNC(=O)[C@]12NC[C@H]3C[C@H]1CN(CC(N)=O)[C@H]2[C@@H]3CCc1ccccc1` [IB-109]: 10 to 30 µM; for `CCCCCCNC(=O)[C@]12NC[C@H]3C[C@H]1CN(CC(N)=O)[C@H]2[C@@H]3Cc1cccc2ccccc12` [IB-110]: < 5 µM; for `NC(=O)CN1C[C@@H]2C[C@@H]3CN[C@]2(C(=O)NCc2ccccc2)[C@@H]1[C@@H]3CCc1ccccc1` [IB-130]: 10 to 30 µM.
`CCCCCCNC(=O)[C@]12NC[C@H]3C[C@H]1CN(CCCNC(=N)N)[C@H]2[C@@H]3CCc1ccccc1` [IB-174]: the IC50 (read-out: Anti-rabies activity) fell in the range of 10 to 30 µM.
On the same count and under the same terms, the same measure for `CC(C)C[C@@H]1[C@H]2CN[C@@]3(C(=O)NC(C)C)[C@@H](C2)CN(CCCNC(=N)N)[C@@H]13` [IB-176]: 10 to 30 µM.
The same measure, in the same setting: the same measure for `CC(C)NC(=O)[C@]12NC[C@H]3C[C@H]1CN(CCCNC(=N)N)[C@H]2[C@@H]3CCc1ccccc1` [IB-179]: 10 to 30 µM; for `N=C(N)NCCCN1C[C@@H]2C[C@@H]3CN[C@]2(C(=O)NCc2ccc(F)cc2)[C@@H]1[C@@H]3Cc1ccccc1` [IB-182]: 10 to 30 µM.
Regarding `CC(C)CNC(=O)[C@]12NC[C@H]3C[C@H]1CN(CC(C)C)[C@H]2[C@@H]3CCCNC(=N)N` [IB-187], the IC50 (read-out: Anti-rabies activity) lay within 10 to 30 µM.
On to `CC(C)CCNC(=O)[C@]12NC[C@H]3C[C@H]1CN(CC(C)C)[C@H]2[C@@H]3CCCNC(=N)N` [IB-192], for which, under “read-out: Anti-rabies activity”, the IC50 was < 5 µM.
As for `CC(C)CNC(=O)[C@]12NC[C@H]3C[C@H]1CN(Cc1ccccc1)[C@H]2[C@@H]3CCCNC(=N)N` [IB-198], the IC50 (read-out: Anti-rabies activity) was 10 to 30 µM.
`CC(C)CNC(=O)[C@]12NC[C@H]3C[C@H]1CN(Cc1ccc(O)cc1)[C@H]2[C@@H]3CCCNC(=N)N` [IB-203]: the IC50 (read-out: Anti-rabies activity) is 10 to 30 µM.
